Reference: US20240400564A1 (Syndax Pharmaceuticals, Inc, priority 2021, published 2024)

Assays:
[1] = tested on: MLLr leukemia cell line MV4-11; experiment: Cell proliferation assay MV4;11 (CellTiter-Glo, 72 hours); type: cell-based; conditions: Homo sapiens; MV4-11 cells, 72 hours, CellTiter-Glo; read-out: MV4; 11 IC50
Protocol: Compounds were evaluated for its capacity to inhibit the proliferation of the MLLr leukemia cell line MV4-11 that harbors an MLL1-AF4 fusion protein. MV4-11 cells were cultured for 72 hours with limiting dilutions of compounds and viability was measured using CellTiter-Glo.
Compounds were dissolved to obtain as 10 mM solution in DMSO. The stock was diluted 1:5 to the top concentration of 2 mM in 100% DMSO. For IC50 determination, serial 1:3.16 dilutions were prepared in 100% DMSO by diluting 20 μL into 43.5 μL of DMSO for 8 concentrations. Each prepared DMSO solution were further diluted 1:500 in the cell culture media to obtain the 2× dosing solutions. The final concentrations of tested compounds in the cell culture media ranged from 0.632 nM to 2000 nM.
MV4-11 cells were cultured in IMDM with 10% FBS and 1× Penicillin-Streptomycin at 5% CO2 and 37° C. A cell suspension was prepared containing 15,000 cells/ml in the culture medium and 100 μL of this suspension was added per well to a 96-well cell culture plate. Then, 100 μL of 2× dosing media containing test compounds were added bringing the total volume to 200 μL. These cells were cultured for 72 hours at 37° C. and 5% CO2 in a humidified incubator.
After 72 hours, the cultured cells were mixed and 100 μL was transferred to a 96-well black plate. Cell Titer Glo (100 μl) was then added to this plate. The plate was mixed with shaking for 15 mins at RT, the luminescence was then measured using Tecan Spark 20M spectrophotometer. Cell Viability (%) was determined by RLU of test/RLU average vehicle control*100 and % max inhibition was determined by 100−(% cell viability remaining at the top concentration of compound).

hERG = hERG (Homo sapiens, UniProt Q12809); experiment: Patch clamp assay (hERG tail currents, whole-cell)
Chain of hERG (Q12809 whole entry): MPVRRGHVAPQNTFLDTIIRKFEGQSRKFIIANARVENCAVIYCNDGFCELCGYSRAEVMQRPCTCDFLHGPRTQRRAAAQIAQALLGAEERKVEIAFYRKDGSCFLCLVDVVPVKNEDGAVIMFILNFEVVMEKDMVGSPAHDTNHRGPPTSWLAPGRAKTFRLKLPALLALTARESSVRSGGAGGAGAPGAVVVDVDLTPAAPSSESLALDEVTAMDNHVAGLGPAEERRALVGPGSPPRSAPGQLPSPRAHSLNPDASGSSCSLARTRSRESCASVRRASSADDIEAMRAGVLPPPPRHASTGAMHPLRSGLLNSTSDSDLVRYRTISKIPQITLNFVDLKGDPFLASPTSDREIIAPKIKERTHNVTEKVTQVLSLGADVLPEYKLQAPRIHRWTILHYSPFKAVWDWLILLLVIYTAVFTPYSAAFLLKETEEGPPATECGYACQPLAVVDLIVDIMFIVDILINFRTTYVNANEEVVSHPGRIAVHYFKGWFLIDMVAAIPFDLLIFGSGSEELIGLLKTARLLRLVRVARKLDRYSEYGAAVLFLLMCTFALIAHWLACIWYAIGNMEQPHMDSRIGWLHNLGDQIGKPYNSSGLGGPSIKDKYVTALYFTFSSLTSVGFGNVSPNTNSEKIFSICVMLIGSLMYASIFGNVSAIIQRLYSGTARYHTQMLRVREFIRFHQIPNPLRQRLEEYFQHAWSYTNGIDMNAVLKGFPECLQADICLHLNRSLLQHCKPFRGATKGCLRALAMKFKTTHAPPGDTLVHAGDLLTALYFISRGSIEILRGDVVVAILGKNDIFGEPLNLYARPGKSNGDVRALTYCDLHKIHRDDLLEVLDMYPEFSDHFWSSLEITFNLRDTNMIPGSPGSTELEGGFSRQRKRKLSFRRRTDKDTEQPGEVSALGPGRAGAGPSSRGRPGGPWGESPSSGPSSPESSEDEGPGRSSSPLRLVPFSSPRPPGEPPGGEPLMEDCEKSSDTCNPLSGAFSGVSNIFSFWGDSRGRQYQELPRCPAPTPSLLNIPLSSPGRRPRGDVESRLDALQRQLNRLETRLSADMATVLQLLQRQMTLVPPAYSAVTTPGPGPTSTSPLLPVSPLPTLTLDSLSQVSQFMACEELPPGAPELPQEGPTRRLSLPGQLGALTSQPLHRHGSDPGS

| SMILES | IC50 [1] | hERG % Remaining (hERG; 10 μM compound) | hERG % Remaining (hERG; 30 μM compound) |
| --- | --- | --- | --- |
| CC(C)N(CC(F)F)C(=O)c1cc(F)ccc1Oc1cncnc1N1CC2(CCN(C[C@@H]3CC[C@@H](NS(=O)(=O)c4cnn(C)c4)CO3)CC2)C1 [Example 100, N-(2,2-Difluoroethyl)-5-fluoro-N-isopropyl-2-((4-(7-(((2S,5R)-5-((1-methyl-1H-pyrazole)-4-sulfonamido)tetrahydro-2H-pyran-2-yl)methyl)-2,7-diazaspiro[3.5]nonan-2-yl)pyrimidin-5-yl)oxy)benzamide] | < 100 nM | +++ (≥66%) | +++ (≥66%) |
| Cc1c(S(=O)(=O)N[C@@H]2CC[C@@H](CN3CCC4(CC3)CN(c3ncncc3Oc3ccc(F)cc3C(=O)N(CC(F)F)C(C)C)C4)OC2)cnn1C [Example 104, N-(2,2-Difluoroethyl)-2-((4-(7-(((2S,5R)-5-((1,5-dimethyl-1H-pyrazole)-4-sulfonamido)tetrahydro-2H-pyran-2-yl)methyl)-2,7-diazaspiro[3.5]nonan-2-yl)pyrimidin-5-yl)oxy)-5-fluoro-N-isopropylbenzamide] | < 100 nM | – | +++ (≥66%) |
| CC(C)N(C(=O)c1cc(F)ccc1Oc1cncnc1N1CC2(CCN(C[C@@H]3CC[C@@H](NS(=O)(=O)c4cnn(C)c4)CO3)CC2)C1)C1CC(F)(F)C1 [Example 156, N-(3,3-Difluorocyclobutyl)-5-fluoro-N-isopropyl-2-((4-(7-(((2S,5R)-5-((1-methyl-1H-pyrazole)-4-sulfonamido)tetrahydro-2H-pyran-2-yl)methyl)-2,7-diazaspiro[3.5]nonan-2-yl)pyrimidin-5-yl)oxy)benzamide] | < 100 nM | – | +++ (≥66%) |
| CCN(C(=O)c1cc(F)ccc1Oc1cncnc1N1CC2(CCN(C[C@@H]3CC[C@@H](NS(=O)(=O)c4c[nH]c(=O)c(C)c4)CO3)CC2)C1)C(C)C [Example 218, N-Ethyl-5-fluoro-N-isopropyl-2-((4-(7-(((2S,5R)-5-((5-methyl-6-oxo-1,6-dihydropyridine)-3-sulfonamido)tetrahydro-2H-pyran-2-yl)methyl)-2,7-diazaspiro[3.5]nonan-2-yl)pyrimidin-5-yl)oxy)benzamide] | < 100 nM | – | + (<33%) |
| Cc1ncc(S(=O)(=O)N[C@@H]2CC[C@@H](CN3CCC4(CC3)CN(c3ncncc3Oc3ccc(F)cc3C(=O)N(C(C)C)C(C)C)C4)OC2)s1 [Example 84, 5-Fluoro-N,N-diisopropyl-2-((4-(7-(((2S,5R)-5-((2-methylthiazole)-5-sulfonamido)tetrahydro-2H-pyran-2-yl)methyl)-2,7-diazaspiro[3.5]nonan-2-yl)pyrimidin-5-yl)oxy)benzamide] | < 100 nM | ++ (233% and ≤66%) | + (<33%) |
| CC(C)N(CC(F)F)C(=O)c1cc(F)ccc1Oc1cncnc1N1CC2(CCN(C[C@@H]3CC[C@@H](NS(=O)(=O)c4nn(C)cc4F)CO3)CC2)C1 [Example 241, N-(2,2-Difluoroethyl)-5-fluoro-2-((4-(7-(((2S,5R)-5-((4-fluoro-1-methyl-1H-pyrazole)-3-sulfonamido)tetrahydro-2H-pyran-2-yl)methyl)-2,7-diazaspiro[3.5]nonan-2-yl)pyrimidin-5-yl)oxy)-N-isopropylbenzamide] | < 100 nM | – | ++ (233% and ≤66%) |
| Cc1nn(C)cc1S(=O)(=O)N[C@@H]1CC[C@@H](CN2CCC3(CC2)CN(c2ncncc2Oc2ccc(F)cc2C(=O)N(CC(F)F)C(C)C)C3)OC1 [Example 105, N-(2,2-Difluoroethyl)-2-((4-(7-(((2S,5R)-5-((1,3-dimethyl-1H-pyrazole)-4-sulfonamido)tetrahydro-2H-pyran-2-yl)methyl)-2,7-diazaspiro[3.5]nonan-2-yl)pyrimidin-5-yl)oxy)-5-fluoro-N-isopropylbenzamide] | < 100 nM | – | +++ (≥66%) |
